# Test results published in patent US20260132141A1, “PROTEIN PHOSPHATASE 2A ACTIVATORS” (University of Florida Research Foundation, Incorporated, priority 2022, published 2026).
# What was measured:
# [1] = test system: normal keratinocyte (HaCaT) cells; assay: cell viability screen in noncancerous HaCaT cells; type: cell-based
# From the text: FIGS. 14A-14C depict cell viability screen of PPA24, PPA27, iHAP1, and NSC49L in normal keratinocyte (HaCaT) (FIG. 14A) and epithelial (FHC) (FIG. 14B) cells, where the compounds were able to showcase selectivity to cancerous cells vs. noncancerous cells. FIG. 14C depicts IC50 concentrations of the compounds in the cells. Analyses were done using GraphPad Prism 7.0 Software.
# The compounds PPA24, PPA27, iHAP1, and NSC49L were screened in noncancerous cell lines to observe the selectivity these compounds have towards cancerous cells by assessing the differences in IC50 concentrations.
# PP2ACα = PP2ACα (Homo sapiens, UniProt P67775); assay: surface plasmon resonance (SPR) binding to catalytic subunit PP2ACα; settings: no KD could be calculated
# From the text: FIGS. 12A-12E depict surface plasmon resonance (SPR) analysis of the binding of PPA24, PPA27, and NSC49L to catalytic subunit, PP2ACα. FIG. 12A depicts surface plasmon resonance (SPR) studies of PPA24 binding to PP2ACα. FIG. 12B depicts surface plasmon resonance (SPR) studies of PPA27 binding to PP2ACα. FIG. 12C depicts the dissociation constant (KD) of PPA24 binding to PP2ACα. FIG. 12D depicts the dissociation constant (KD) of PPA27 binding to PP2ACα. FIG. 12E depicts surface plasmon resonance (SPR) studies of 100 μM of NSC49L binding to PP2ACα.
# Thus, the binding affinity can be in the order of PPA24>PPA27>NSC49L>iHAP1.
# PP2ACα, sequence (P67775 whole entry): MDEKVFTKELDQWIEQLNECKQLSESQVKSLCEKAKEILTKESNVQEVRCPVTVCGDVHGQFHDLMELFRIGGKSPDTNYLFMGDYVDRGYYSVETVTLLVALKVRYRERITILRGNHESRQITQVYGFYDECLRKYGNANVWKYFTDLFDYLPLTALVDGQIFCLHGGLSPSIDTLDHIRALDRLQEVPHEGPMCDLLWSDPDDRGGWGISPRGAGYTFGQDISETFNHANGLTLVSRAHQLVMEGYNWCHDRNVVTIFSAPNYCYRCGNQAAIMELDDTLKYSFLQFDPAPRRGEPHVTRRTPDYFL
SMILES,selectivity: cell viability in HaCaT cells versus CRC cells [1],SPR binding signal to PP2ACα (PP2ACα)
ClC/C=C/C[N+]12CN3CN(CN(C3)C1)C2.[Cl-] [NSC49L],some selectivity towards cancerous cells,only had a binding signal at 100 μM
COc1ccc(C(=O)N2c3ccccc3Sc3ccc(Cl)cc32)cc1 [iHAP1],do not appear to have a significant difference,did not show a clear signal even at high concentrations
